According to ChEMBL document CHEMBL1135549 (J Med Chem, 2002):

Tests used:
Cannabinoid receptor 2 = molecular target: T1, Cannabinoid receptor 2 (Rattus norvegicus, UniProt Q9QZN9); test: Displacement of [3H]CP-55940 from rat forebrain membrane which expresses Cannabinoid receptor 2 in the presence of PMSF
T1 sequence (Q9QZN9 whole entry): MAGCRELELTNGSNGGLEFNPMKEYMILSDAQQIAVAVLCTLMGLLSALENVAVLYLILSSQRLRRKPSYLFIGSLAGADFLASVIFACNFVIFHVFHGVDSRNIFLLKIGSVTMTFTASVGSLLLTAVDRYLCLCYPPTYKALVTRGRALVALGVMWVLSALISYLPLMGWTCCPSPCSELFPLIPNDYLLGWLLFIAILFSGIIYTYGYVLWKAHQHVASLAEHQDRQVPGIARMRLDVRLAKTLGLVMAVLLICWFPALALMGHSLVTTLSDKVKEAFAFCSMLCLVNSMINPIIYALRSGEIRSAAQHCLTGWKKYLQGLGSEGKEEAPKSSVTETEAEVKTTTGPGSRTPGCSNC

Cannabinoid receptor 1 = Cannabinoid receptor 1 (Rattus norvegicus, UniProt P20272); test: Displacement of [3H]CP-55940 from rat forebrain membrane which expresses Cannabinoid receptor 1 in the presence of PMSF
Cannabinoid receptor 1, sequence (P20272 whole entry): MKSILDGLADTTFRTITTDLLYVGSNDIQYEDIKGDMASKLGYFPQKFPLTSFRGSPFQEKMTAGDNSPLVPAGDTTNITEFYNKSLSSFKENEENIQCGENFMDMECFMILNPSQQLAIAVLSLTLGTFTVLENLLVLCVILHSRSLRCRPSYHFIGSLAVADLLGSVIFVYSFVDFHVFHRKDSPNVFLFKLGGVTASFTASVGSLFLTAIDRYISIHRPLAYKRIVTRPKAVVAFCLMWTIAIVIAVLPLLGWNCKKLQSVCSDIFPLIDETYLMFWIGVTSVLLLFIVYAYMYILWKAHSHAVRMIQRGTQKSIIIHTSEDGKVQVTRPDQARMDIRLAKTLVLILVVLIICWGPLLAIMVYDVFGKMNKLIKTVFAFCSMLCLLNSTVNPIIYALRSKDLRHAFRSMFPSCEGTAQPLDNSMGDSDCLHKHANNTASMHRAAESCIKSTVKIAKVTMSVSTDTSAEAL

[1] = molecular target: T2, Fatty-acid amide hydrolase 1 (Homo sapiens, UniProt O00519); test: Inhibition of Fatty-acid amide hydrolase (FAAH) activity in human lymphoma U937 cell using [3H]AEA as substrate in the 0-25 uM conc; type: cell-based, U-937
T2 sequence (O00519 whole entry): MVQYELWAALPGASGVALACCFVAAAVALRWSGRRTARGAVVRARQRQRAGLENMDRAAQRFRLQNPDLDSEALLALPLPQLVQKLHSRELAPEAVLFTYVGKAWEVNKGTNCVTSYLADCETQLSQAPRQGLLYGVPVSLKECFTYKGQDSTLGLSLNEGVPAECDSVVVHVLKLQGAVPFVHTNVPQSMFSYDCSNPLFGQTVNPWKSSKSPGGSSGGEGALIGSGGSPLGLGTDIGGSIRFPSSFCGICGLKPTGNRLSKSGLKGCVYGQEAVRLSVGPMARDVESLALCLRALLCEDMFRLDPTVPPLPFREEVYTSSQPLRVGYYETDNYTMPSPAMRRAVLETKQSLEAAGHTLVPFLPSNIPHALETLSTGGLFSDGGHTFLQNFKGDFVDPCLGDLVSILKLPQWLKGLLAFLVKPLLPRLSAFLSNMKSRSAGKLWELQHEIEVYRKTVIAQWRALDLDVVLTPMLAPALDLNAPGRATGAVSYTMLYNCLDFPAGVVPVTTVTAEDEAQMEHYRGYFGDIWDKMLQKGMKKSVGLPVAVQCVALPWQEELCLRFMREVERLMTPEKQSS

[2] = Inhibition of N-arachidonoylethanolamine transporter (AEA) activity in human lymphoma U937 cell using [3H]AEA as substrate in the 0-1000 nM conc.; type: cell-based; settings: u-937
[3] = molecular target: Cannabinoid receptor (Rattus norvegicus) (UniProt Q9QZN9+P20272); test: Ratio of Ki at CB1 to Ki at CB2 receptors; type: protein assay
Cannabinoid receptor (Rattus norvegicus), sequence (P20272 whole entry, looked up, one chain of several): as the sequence (P20272 whole entry) above

Structure (SMILES)	Ki (Cannabinoid receptor 2) [µM]	Ki (Cannabinoid receptor 1) [µM]	Ki [1] [µM]	Ki [2] [µM]	Ratio [3]
CCCCC/C=C\C=C\[C@@H](O)C/C=C\C/C=C\CCCC(=O)NCCO	> 1	> 1	0.57	> 10	
CCCCC[C@H](O)/C=C/C=C\C/C=C\C/C=C\CCCC(=O)OC[C@@H](O)CO	0.55	> 1	6	9	
CCCCC/C=C\C/C=C\C/C=C\C/C=C\CCCC(=O)OC(CO)CO [2-ARACHIDONOYLGLYCEROL]	0.1		5	3	
CCCCC/C=C\C[C@@H](O)/C=C/C=C\C/C=C\CCCC(=O)NCCO	0.5	0.15	2.9	> 10	0.3
CCCCC/C=C\C=C\C(O)C/C=C\C/C=C\CCCC(=O)NCCO (mixture of isomers)	> 1	> 1	0.69	> 10	
CCCCCC(O)/C=C/C=C\C/C=C\C/C=C\CCCC(=O)NCCO (mixture of isomers)	> 1	0.68	0.63	> 10	> 0.7
CCCCC[C@H](O)/C=C/C=C\C=C\[C@@H](O)C/C=C\CCCC(=O)NCCO	> 1	> 1	0.69	> 10	
CCCCC[C@H](O)/C=C/C=C\CCCCCCCC(=O)NCCO	0.6	> 1	0.43	> 10	> 1.7
CCCCC[C@H](O)/C=C/C=C\C/C=C\C/C=C\CCCC(=O)OC[C@H](O)CO	> 1	> 1	5	7	
CCCCC[C@@H](O)/C=C/C=C\C/C=C\C/C=C\CCCC(=O)NCCO	> 1	0.6	0.63	> 10	< 0.6
CCCCC[C@@H](O)/C=C/C=C\C/C=C\C=C\[C@H](O)CCCC(=O)NCCO	> 1	> 1	1.26	> 10	
CCCCC/C=C\C/C=C\C/C=C\C/C=C\CCCC(=O)NCCO [ANANDAMIDE]			> 10	> 10	
CCCCC/C=C\C/C=C\C/C=C\C/C=C\CCCC(=O)OC[C@H](O)CO	> 1	> 1	2.5	10	
CCCCC/C=C\C/C=C\C/C=C\C/C=C\CCCC(=O)OC[C@@H](O)CO	> 1	> 1	3	> 10	
